Like-named read-outs stand apart in the source and are kept apart here.
Tests used:
Format in all cases: cell-based, human
[1] = system: AhR (CYP1B1 target gene expression) in iPSCs; experiment: Quantitative RT-PCR of AhR target gene CYP1B1 in iPSCs
Protocol: RNA was extracted using the RNeasy kit (Qiagen) according to the manufacturer's instructions and DNase treated using the DNA-free kit (Ambion AM1906). Reverse transcription into cDNA was performed using the High Capacity cDNA Reverse Transcription Kit (Applied Biosystems 4368814). Quantitative (real time) PCR amplification of cDNA was performed using Taqman probes for AHR (Hs00169233 ml), CYP1B1 (Hs002382916 sl), HBA (Hs00361191 gl), HBB (Hs00758889 sl), HBG (Hs01629437 sl), vWF (Hs00169795 ml), PF4 (Hs00427220 gl), NF-E2 (Hs00232351 ml) and CD62P (Hs00927900 ml) and run on the Applied Biosystems StepOne machine. […]
To characterize AhR expression and functionality in both undifferentiated iPSCs and directly differentiated MEPs, AhR protein levels were determined via Western blot in these populations. AhR receptor was robustly expressed in day 30 and day 60 MEPs (FIG. 4A). However, AhR protein was not detected by western blotting in iPSC populations, and we postulated that AhR was expressed at extremely low levels in iPSCs, i.e., below the level of detectability with the antibodies used for Western blots. To test this hypothesis, the ability of FICZ to induce a prototypic AhR-target gene, CYPIB1, in iPSCs or, as a positive control, MEPs was assessed by quantitative RT-PCR.

[2] = system: AhR (CYP1B1 target gene expression) in MEPs; experiment: Quantitative RT-PCR of AhR target gene CYP1B1 in MEPs
Protocol: (§1) 6-formylindolo[3,2-b]carbazole (FICZ), an AHR small molecule agonist, and CH223191, an AHR competitive inhibitor were used for these assays. CH223191 was added to mesoderm cultures at Day 6 at 5 μM (lx) and 2.504 (0.5×). 0.2 μM FICZ was added to cultures at Day 7 and media was added daily. DMSO was used as a vehicle control.
RNA was extracted using the RNeasy kit (Qiagen) according to the manufacturer's instructions and DNase treated using the DNA-free kit (Ambion AM1906). Reverse transcription into cDNA was performed using the High Capacity cDNA Reverse Transcription Kit (Applied Biosystems 4368814). Quantitative (real time) PCR amplification of cDNA was performed using Taqman probes for AHR (Hs00169233 ml), CYP1B1 (Hs002382916 sl), HBA (Hs00361191 gl), HBB (Hs00758889 sl), HBG (Hs01629437 sl), vWF (Hs00169795 ml), PF4 (Hs00427220 gl), NF-E2 (Hs00232351 ml) and CD62P (Hs00927900 ml) and run on the Applied Biosystems StepOne machine. Relative gene expression was normalized to B-actin (Hs99999903 ml).
To characterize AhR expression and functionality in both undifferentiated iPSCs and directly differentiated MEPs, AhR protein levels were determined via Western blot in these populations. […] To test this hypothesis, the ability of FICZ to induce a prototypic AhR-target gene, CYPIB1, in iPSCs or, as a positive control, MEPs was assessed by quantitative RT-PCR.

iPSC-derived MEPs [3] = experiment: Live versus dead cell FACS (propidium iodide vs. Hoechst) of MEPs; conditions: pre-treated for 24 hours with 5 μM CH223191 before FICZ
Protocol: as §1
(§2) Roughly 10^5 cells were collected, spun, and re-suspended in 0.5% BSA in PBS. Samples were incubated for 30 min at ambient temperature with human antibodies including CD41a-FITC (BD 555466), CD235-PE (BD 555570), CD71-FITC (BD 555536), washed and spun at 3300 rpm for 7 min, and re-suspended in 0.5% BSA in PBS with 1 ug/ml Propidium Iodide. Samples were run on a BD FACScalibur using Cellquest Pro software and analyzed via FloJo 8.7. For ploidy analysis, cells were treated with 1.5% NP-40 (Boston Bioproducts P-872) and 62.5 ug/ml Propidium Iodide in PBS immediately before FACScalibur interrogation. For murine bone marrow, samples were first incubated for 5 min at ambient temperature with murine conjugated antibody CD16/32 (BD 553142) before a 30 min incubation with c-Kit-PE (BD 553355), CD41a-FITC (BD 553848), Ter119-PE (BD 553673). For cell viability assays, 2-3×10 ^5 cells were collected, re-suspended in 8.8 ug/ml Hoecsht 33342 in PBS supplemented with 5% FBS. Samples were then incubated in the dark at 37° C. for 15 min, washed, and re-suspended in 1 ug/ml Propidium Iodide in 5% FBS. Samples were run on an LSR-II machine with FACSDiva software and analyzed via FloJo 8.7.
In order to determine whether FICZ-mediated transactivation of the AhR receptor was responsible for the exponential expansion of iPSC-derived MEPs, the previously described Hoecsht/Propidium Iodide apoptosis assay was performed using the known AhR inhibitor CH223191. As previously shown in FIG. 3, fewer cells stained with propidium iodide after FICZ treatment (e.g., 15.5% vs. 8.09%) (FIG. 5E). […] The efficacy of the CH223191 was confirmed by its ability to block CY1^31B1 induction as assayed by qRT-PCR (FIG. 5F).

iPSC-derived MEPs [4] = experiment: Growth / expansion of MEP cultures (manual counts, trypan blue exclusion)
Protocol: Plots were gated first in FSC vs. SSC and then from that population for PI ‘ and PE Hoechst’. […] (B) Representative phase contrast images of MEP population+FICZ. (C) Growth curve of day 15 MEPs+/−[…] FICZ. Cells were counted manually using trypan blue exclusion. Graphical data and the associated statistics are the result of three independent experiments per group.
High passage iPSCs were plated onto matrigel coated 6-well plates in iPSC media conditioned on iMEFs for 24 hours and supplemented with 2 ng/ml Rho Kinase Inhibitor and 20 ng/ml bFGF. After two days, iPSC media was replaced with Mesoderm DO-1 media: RPMI (Invitrogen A1049101) supplemented with 5 ng/mlhBMP-4 (R&D 314-BP-010), 50 ng/ml hVEGF (R&D 293-VE-010), 25 ng/mlhWnt3a (R&D 287-TC-500) and 10% KOSR. At Day 2, Mesoderm DO-1 media was replaced with Mesoderm D2 media: RPMI supplemented with 5 ng/ml hBMP-4, 50 ng/mlhVEGF, 20 ng/ml bFGF and 10% KOSR. Mesoderm D3 media consisted of the following: StemPro 34 (Invitrogen 10639011), 5 ng/ml hBMP-4, 50 ng/mlhVEGF, and 20 ng/ml bFGF. Mesoderm media for days 4 and 5 consisted of: StemPro 34, 15 ng/mlhVEGF, and 5 ng/ml bFGF. Day 6 mesoderm media: 74% IMDM (Invitrogen 12330061), 24% Hams F12 (Mediatech 10-080-CV), 1% B27 supplement (Invitrogen 12587-010), 0.5% N2-supplement (Invitrogen 17502-048), 0.5% BSA (Sigma A3059), 50 ng/ml hVEGF, 100 ng/mlbFGF, 100 ng/ml hSCF (R&D 255-SC-010), 25 ng/ml hFlt3 Ligand (R&D 308-FKN-005). Day 7 media: 74% IMDM, 24% Hams F12, 1% B27 supplement, 0.5% N2-supplement, 0.5% BSA, 50 ng/ml hVEGF, 100 ng/ml bFGF, 100 ng/ml hSCF, 25 ng/ml hFlt3 Ligand, 50 ng/ml hTPO (Genentech G140BT), 10 ng/ml IL-6 (R&D 206-IL-010), 0.5 U/ml hEPOgen and 0.2 uM 6-formylindolo[3,2-b]carbazole (FICZ) (Santa Cruz SC300019). After Day 7, 0.5 ml of Day 7 media was added to the culture daily without aspirating the media from the previous day. All base media mixes included 2 mM L-Glutamine (Invitrogen 25030081), 4×10^-4M Monothioglycerol (Sigma M1753), 100 ug/ml Primocin, and 50 ug/ml Ascorbic Acid. Cells in suspension were collected and assayed at Days 10-13 or split for long-term culture.
as §1

AhR = experiment: Lentiviral AhR reporter (MMTV-DRE dsRed / luciferase) in MEPs; conditions: day 30 MEPs, 0.2 μM FICZ plus 5 μM CH223191
iPSC-derived MEPs [5] = experiment: Immunophenotyping of MEP lineage specification (CD235, CD71, CD41 FACS); conditions: day 30 MEPs, basal cytokine conditions, versus vehicle
Protocol: as §2
In our previous studies in which we noted exponential expansion of iPSC-derived MEPs (FIG. 3), the AhR-mediated effect that we noted allowed us to culture cells for extended periods of time (>120 days). […]

With `O=c1cc(-c2ccccc2)oc2ccc3ccccc3c12` [(3-NF, P-naphtoflavone] the “responsiveness to AhR agonist (CYP1B1 RT-PCR)” value (shortened to “responsiveness to AhR agonist”) [1] was “responsive” and the “responsiveness to AhR agonist” value ([2]; MEP, normalized to GAPDH) was “responsive”.
With `Cc1ccccc1N=Nc1ccc(NC(=O)c2ccnn2C)c(C)c1` [CH223191, 2-methyl-2H-pyrazole-3-carboxylic acid (2-methyl-4-o-tolylazo-phenyl)-amide] the “percentage of PI+ cells, vehicle versus FICZ-treated cultures” value (iPSC-derived MEPs [3]) was “approximately the same”, the “expansion of MEPs” value (iPSC-derived MEPs [4]; 2.5 μM CH223191 pre-treatment before addition of FICZ) was “still capable of expansion” and the “expansion of MEPs” value (iPSC-derived MEPs [4]; 5 μM CH223191 pre-treatment + FICZ) was “No significant expansion”. For the same compound, the “CYP1B1 induction by FICZ” value ([2]; MEPs pretreated with CH223191 at D6, FICZ at D7) was “block”, the DsRed reporter expression (AhR) was “significant decrease” and the “CD41+ megakaryocyte-lineage cells” value (iPSC-derived MEPs [5]) was “small but defined population”.
With `Clc1cc2c(cc1Cl)Oc1cc(Cl)c(Cl)cc1O2` [TCDD, 2,3,7,8-tetrachlorodibenzo(p)dioxin] the “responsiveness to AhR agonist” value ([1]; iPSC treated for 4 days, normalized to GAPDH) was “responsive”.
